Data from PubChem BioAssay AID1963975 (Molecular Pharmacology Branch, DTP, NCI, 2024).

Tested on: 624824-186-R-J2-PDC multicell spheroids, viability
Test: Anticancer human tumor 624824-186-R-J2-PDC patient-derived colon adenocarcinoma cell line growth inhibition [PI3K]
Settings: for IC50: curve of first compound; for viability, T/C: stronger effect = lower value
Procedure, shortened: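 Stroma-containing spheroids: tumor line, pooled-donor HUVEC, hMSC. Treatments: targeted agents with PI3K inhibitors. Dosing: clinically relevant, half-log spacing, 10 microM ceiling without known Cmax. Read-out: cell viability.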

[1] = second compound 0.00316 µM, first compound 0.0316 µM
[2] = second compound 0.00316 µM, first compound 0.1 µM
[3] = second compound 0.00316 µM, first compound 0.316 µM
[4] = second compound 0.00316 µM, first compound 1 µM
[5] = second compound 0.00316 µM, first compound 3.16 µM
[6] = second compound 0.00316 µM, first compound 10 µM
[7] = second compound 0.01 µM, first compound 0.0316 µM
[8] = second compound 0.01 µM, first compound 0.1 µM
[9] = second compound 0.01 µM, first compound 0.316 µM
[10] = second compound 0.01 µM, first compound 1 µM
[11] = second compound 0.01 µM, first compound 3.16 µM
[12] = second compound 0.01 µM, first compound 10 µM
[13] = second compound 0.0316 µM, first compound 0.0316 µM
[14] = second compound 0.0316 µM, first compound 0.1 µM
[15] = second compound 0.0316 µM, first compound 0.316 µM
[16] = second compound 0.0316 µM, first compound 1 µM
[17] = second compound 0.0316 µM, first compound 3.16 µM
[18] = second compound 0.0316 µM, first compound 10 µM
[19] = second compound 0.1 µM, first compound 0.0316 µM
[20] = second compound 0.1 µM, first compound 0.1 µM
[21] = second compound 0.1 µM, first compound 0.316 µM
[22] = second compound 0.1 µM, first compound 1 µM
[23] = second compound 0.1 µM, first compound 3.16 µM
[24] = second compound 0.1 µM, first compound 10 µM
[25] = second compound 0.316 µM, first compound 0.0316 µM
[26] = second compound 0.316 µM, first compound 0.1 µM
[27] = second compound 0.316 µM, first compound 0.316 µM
[28] = second compound 0.316 µM, first compound 1 µM
[29] = second compound 0.316 µM, first compound 3.16 µM
[30] = second compound 0.316 µM, first compound 10 µM
[31] = second compound 1 µM, first compound 0.0316 µM
[32] = second compound 1 µM, first compound 0.1 µM
[33] = second compound 1 µM, first compound 0.316 µM
[34] = second compound 1 µM, first compound 1 µM
[35] = second compound 1 µM, first compound 3.16 µM
[36] = second compound 1 µM, first compound 10 µM
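Note: spheroids exposed to agents for 7 days before viability read.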
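Throughout, for viability, T/C: 100% = DMSO vehicle treated spheroids.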

## CNC(=O)c1ccc(N2C(=S)N(c3ccc(C#N)c(C(F)(F)F)c3)C(=O)C2(C)C)cc1F + COc1c(OCCCN2CCOCC2)ccc2c3n(c(=NC(=O)c4cnc(N)nc4)nc12)CCN3
Second compound 0.00316 µM
  IC50: > 10 µM
Second compound 0.01 µM
  IC50: > 10 µM
Second compound 0.0316 µM
  IC50: > 10 µM
Second compound 0.1 µM
  IC50: > 10 µM
Second compound 0.316 µM
  IC50: > 10 µM
Second compound 1 µM
  IC50: > 10 µM
[1]
  viability, T/C: 77.2%
[2]
  viability, T/C: 74%
[3]
  viability, T/C: 76.4%
[4]
  viability, T/C: 91.7%
[5]
  viability, T/C: 89.6%
[6]
  viability, T/C: 110%
[7]
  viability, T/C: 110%
[8]
  viability, T/C: 103%
[9]
  viability, T/C: 99.3%
[10]
  viability, T/C: 94%
[11]
  viability, T/C: 96.9%
[12]
  viability, T/C: 99%
[13]
  viability, T/C: 90.4%
[14]
  viability, T/C: 81.7%
[15]
  viability, T/C: 96.6%
[16]
  viability, T/C: 96.5%
[17]
  viability, T/C: 78.4%
[18]
  viability, T/C: 89.7%
[19]
  viability, T/C: 95.6%
[20]
  viability, T/C: 71.8%
[21]
  viability, T/C: 73.4%
[22]
  viability, T/C: 84%
[23]
  viability, T/C: 79.9%
[24]
  viability, T/C: 70.9%
[25]
  viability, T/C: 62.2%
[26]
  viability, T/C: 66.3%
[27]
  viability, T/C: 65%
[28]
  viability, T/C: 61.5%
[29]
  viability, T/C: 65.4%
[30]
  viability, T/C: 65.3%
[31]
  viability, T/C: 65%
[32]
  viability, T/C: 61.6%
[33]
  viability, T/C: 57.2%
[34]
  viability, T/C: 62.5%
[35]
  viability, T/C: 63%
[36]
  viability, T/C: 57.3%

## CCCS(=O)(=O)Nc1ccc(F)c(C(=O)c2c[nH]c3ncc(-c4ccc(Cl)cc4)cc23)c1F + COc1c(OCCCN2CCOCC2)ccc2c3n(c(=NC(=O)c4cnc(N)nc4)nc12)CCN3
Second compound 0.00316 µM
  IC50: 9.49 µM
Second compound 0.01 µM
  IC50: 7.33 µM
Second compound 0.0316 µM
  IC50: 2.2 µM
Second compound 0.1 µM
  IC50: 1.76 µM
Second compound 0.316 µM
  IC50: 0.178 µM
Second compound 1 µM
  IC50: 0.111 µM
[1]
  viability, T/C: 84.7%
[2]
  viability, T/C: 95.8%
[3]
  viability, T/C: 79.4%
[4]
  viability, T/C: 111%
[5]
  viability, T/C: 123%
[6]
  viability, T/C: 47.7%
[7]
  viability, T/C: 81.5%
[8]
  viability, T/C: 95.2%
[9]
  viability, T/C: 82.3%
[10]
  viability, T/C: 87.4%
[11]
  viability, T/C: 82.1%
[12]
  viability, T/C: 38%
[13]
  viability, T/C: 84.2%
[14]
  viability, T/C: 64.8%
[15]
  viability, T/C: 61.6%
[16]
  viability, T/C: 55.6%
[17]
  viability, T/C: 60.6%
[18]
  viability, T/C: 30.2%
[19]
  viability, T/C: 65.3%
[20]
  viability, T/C: 54.4%
[21]
  viability, T/C: 50%
[22]
  viability, T/C: 48.1%
[23]
  viability, T/C: 49.8%
[24]
  viability, T/C: 21.4%
[25]
  viability, T/C: 64.3%
[26]
  viability, T/C: 51%
[27]
  viability, T/C: 42.8%
[28]
  viability, T/C: 37.9%
[29]
  viability, T/C: 39.5%
[30]
  viability, T/C: 18.6%
[31]
  viability, T/C: 56.5%
[32]
  viability, T/C: 50.1%
[33]
  viability, T/C: 44.2%
[34]
  viability, T/C: 35.4%
[35]
  viability, T/C: 35.1%
[36]
  viability, T/C: 20.6%

## Cn1nccc1Nc1nccc(-c2ccn(C(CO)c3ccc(Cl)c(F)c3)c(=O)c2)n1 (stereo unspecified) + COc1c(OCCCN2CCOCC2)ccc2c3n(c(=NC(=O)c4cnc(N)nc4)nc12)CCN3
Second compound 0.00316 µM
  IC50: > 10 µM
Second compound 0.01 µM
  IC50: > 10 µM
Second compound 0.0316 µM
  IC50: 0.37 µM
Second compound 0.1 µM
  IC50: 0.138 µM
Second compound 0.316 µM
  IC50: 0.0535 µM
Second compound 1 µM
  IC50: 0.0374 µM
[1]
  viability, T/C: 102%
[2]
  viability, T/C: 86.5%
[3]
  viability, T/C: 78.2%
[4]
  viability, T/C: 75.5%
[5]
  viability, T/C: 82.7%
[6]
  viability, T/C: 81.2%
[7]
  viability, T/C: 102%
[8]
  viability, T/C: 71.9%
[9]
  viability, T/C: 74.2%
[10]
  viability, T/C: 67%
[11]
  viability, T/C: 66.7%
[12]
  viability, T/C: 50.5%
[13]
  viability, T/C: 85.7%
[14]
  viability, T/C: 59%
[15]
  viability, T/C: 58.9%
[16]
  viability, T/C: 37.1%
[17]
  viability, T/C: 33.6%
[18]
  viability, T/C: 26.5%
[19]
  viability, T/C: 69.5%
[20]
  viability, T/C: 53.3%
[21]
  viability, T/C: 39.1%
[22]
  viability, T/C: 30.9%
[23]
  viability, T/C: 26.6%
[24]
  viability, T/C: 15.6%
[25]
  viability, T/C: 55.3%
[26]
  viability, T/C: 42.7%
[27]
  viability, T/C: 36.3%
[28]
  viability, T/C: 22.8%
[29]
  viability, T/C: 15.1%
[30]
  viability, T/C: 11.8%
[31]
  viability, T/C: 51.5%
[32]
  viability, T/C: 42.9%
[33]
  viability, T/C: 36.8%
[34]
  viability, T/C: 26.5%
[35]
  viability, T/C: 14.9%
[36]
  viability, T/C: 7.14%
